The subject of this assay is Vaccinia virus. In words: Cytopathogenicity against vaccinia virus. The class given is functional. To be noted: Orthopoxvirus vaccinia. On the technique in general: Protection from cytopathic effect is a common read-out in antiviral testing.

For one compound, MIC results are on record in ChEMBL document CHEMBL1136374, “Inactivation of S-adenosyl-L-homocysteine hydrolase with novel 5'-thioadenosine derivatives. Antiviral effects” (Bioorg Med Chem Lett, 2003).

Each structure is given as a SMILES string. In brackets after ≈: the same amount, converted by molar mass.

With `C=CSC[C@H]1OC(n2cnc3c(N)ncnc32)[C@H](O)[C@@H]1O` (stereo partly specified), the MIC was 30 µM (≈ 9.28 µg/mL).
